Source: patent US20230085307A1, “PYRIDAZINONE COMPOUND AND HERBICIDE” (NISSAN CHEMICAL CORPORATION, priority 2019, published 2023)

Tests used:
Japanese bulrush = experiment: Test Example 1: herbicidal activity, application before weed generation under submerged conditions (Table 16, symbol B); assay type: in vivo, Japanese bulrush (Schoenoplectus juncoides)
Outline: (§1)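 Emulsion formulation, water-diluted to set dose, was put onto the flooded surface (4 cm depth, alluvial soil) the same day weeds were sown and 2.5-leaf rice transplanted. After 3 weeks at 25-30 °C under glass, each species was rated 0 (≤5% kill) to 5 (≥90% kill).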

oval-leafed pondweed = experiment: Test Example 1: herbicidal activity, application before weed generation under submerged conditions (Table 16, symbol C); assay type: in vivo, oval-leafed pondweed (Monochoria vaginalis)
Outline: as §1

Chinese sprangletop = experiment: Test Example 3: herbicidal effect by foliage application, Wagner pot (Table 18, symbol D); assay type: in vivo, chinese sprangletop (Leptochloa chinensis)
Outline: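 Plants were sown in alluvial soil held under 0.1–0.5 cm standing water and grown 14 days in a greenhouse at 25–30 °C. An emulsifiable formulation, water-diluted to the set dose, was then sprayed onto the foliage, and effects were scored three weeks later using previously defined criteria.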

southern crabgrass = experiment: Test Example 4: herbicidal effect by soil treatment (Table 19, symbol F); assay type: in vivo, southern crabgrass (Digitaria ciliaris)
Outline: (§2)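 Applied as a water-diluted emulsion, the compound was sprayed onto soil covering newly sown seeds. Evaluation came three weeks after application, in a greenhouse held at 25° C. to 30° C.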

barnyard grass [1] = experiment: Test Example 4: herbicidal effect by soil treatment (Table 19, symbol H); assay type: in vivo, barnyard grass (Echinochloa crus-galli)
Outline: as §2

wild oat [2] = experiment: Test Example 4: herbicidal effect by soil treatment (Table 19, symbol I); assay type: in vivo, wild oat (Avena fatua)
Outline: as §2

blackgrass [3] = experiment: Test Example 4: herbicidal effect by soil treatment (Table 19, symbol J); assay type: in vivo, blackgrass (Alopecurus myosuroides)
Outline: as §2

velvetleaf [4] = experiment: Test Example 4: herbicidal effect by soil treatment (Table 19, symbol M); assay type: in vivo, velvetleaf (Abutilon theophrasti)
Outline: as §2

redroot pigweed [5] = experiment: Test Example 4: herbicidal effect by soil treatment (Table 19, symbol N); assay type: in vivo, redroot pigweed (Amaranthus retroflexus)
Outline: as §2

lambsquarters = experiment: Test Example 4: herbicidal effect by soil treatment (Table 19, symbol O); assay type: in vivo, lambsquarters (Chenopodium album)
Outline: as §2

barnyard grass [6] = experiment: Test Example 5: herbicidal effect by foliage application, plastic box (Table 20, symbol H); assay type: in vivo, barnyard grass (Echinochloa crus-galli); conditions: foliage application, three weeks after application
Outline: (§3)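 Sow seeds spot-wise in sterilized diluvial soil; cover with ~1.5 cm soil. Grow 14 days in greenhouse, 25° C. to 30° C. Spray foliage with emulsion diluted to predetermined amount. Rate effect after 3 weeks.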

wild oat [7] = experiment: Test Example 5: herbicidal effect by foliage application, plastic box (Table 20, symbol I); assay type: in vivo, wild oat (Avena fatua); conditions: foliage application, three weeks after application
Outline: as §3

blackgrass [8] = experiment: Test Example 5: herbicidal effect by foliage application, plastic box (Table 20, symbol J); assay type: in vivo, blackgrass (Alopecurus myosuroides); conditions: foliage application, three weeks after application
Outline: as §3

velvetleaf [9] = experiment: Test Example 5: herbicidal effect by foliage application, plastic box (Table 20, symbol M); assay type: in vivo, velvetleaf (Abutilon theophrasti); conditions: foliage application, three weeks after application
Outline: as §3

redroot pigweed [10] = experiment: Test Example 5: herbicidal effect by foliage application, plastic box (Table 20, symbol N); assay type: in vivo, redroot pigweed (Amaranthus retroflexus); conditions: foliage application, 320 g/ha, three weeks after application
Outline: as §3

chickweed = experiment: Test Example 5: herbicidal effect by foliage application, plastic box (Table 20, symbol P); assay type: in vivo, common chickweed (Stellaria media); conditions: foliage application, 320 g/ha, three weeks after application
Outline: as §3

false cleavers = experiment: Test Example 5: herbicidal effect by foliage application, plastic box (Table 20, symbol Q); assay type: in vivo, false cleavers (Galium spurium); conditions: foliage application, three weeks after application
Outline: as §3

[11] = amount of applied herbicide 320 g/ha
[12] = amount of applied herbicide 390 g/ha

Compound	Herbicidal effect, B: Japanese bulrush (Japanese bulrush; [11])	Herbicidal effect, C: oval-leafed pondweed (oval-leafed pondweed; [11])	F: southern crabgrass, herbicidal effect grade (southern crabgrass; [11])	H: barnyard grass, herbicidal effect grade (barnyard grass [1]; [11])	I: wild oat, herbicidal effect grade (wild oat [2]; [11])	J: blackgrass, herbicidal effect grade (blackgrass [3]; [11])	M: velvetleaf, herbicidal effect grade (velvetleaf [4]; [11])	N: redroot pigweed, herbicidal effect grade (redroot pigweed [5]; [11])	O: lambsquarters, herbicidal effect grade (lambsquarters; [11])	Herbicidal effect on D (Chinese sprangletop), foliage application (Chinese sprangletop; [11])	herbicidal effect on barnyard grass (H) (barnyard grass [6]; 320 g/ha)	herbicidal effect on wild oat (I) (wild oat [7]; 320 g/ha)	herbicidal effect on blackgrass (J) (blackgrass [8]; 320 g/ha)	herbicidal effect on velvetleaf (M) (velvetleaf [9]; 320 g/ha)	herbicidal effect on false cleavers (Q) (false cleavers; 320 g/ha)	also measured
CCCC(=O)Oc1c(C)nn(C)c(=O)c1-c1c(-c2ccccc2OCC)sc2cc(Cl)ccc12 [3-040]	3 (Herbicidal rate of 40% or more and less than 70%)	2 (Herbicidal rate of 20% or more and less than 40%)	1 (Herbicidal rate of 5% or more and less than 20%)	0 (Herbicidal rate of 5% or less (almost no effect))	0 (Herbicidal rate of 5% or less (almost no effect))	0 (Herbicidal rate of 5% or less (almost no effect))	3 (Herbicidal rate of 40% or more and less than 70%)	4 (Herbicidal rate of 70% or more and less than 90%)	3 (Herbicidal rate of 40% or more and less than 70%)							herbicidal effect on Chinese sprangletop (D) (Chinese sprangletop; 320 g/ha): 0 (Herbicidal rate of 5% or less (almost no effect)); H: barnyard grass, herbicidal effect grade (barnyard grass [6]; 320 g/ha): 5 (Herbicidal rate of 90% or more (almost completely withered)); I: wild oat, herbicidal effect grade (wild oat [7]; 320 g/ha): 1 (Herbicidal rate of 5% or more and less than 20%); J: blackgrass, herbicidal effect grade (blackgrass [8]; 320 g/ha): 5 (Herbicidal rate of 90% or more (almost completely withered)); M: velvetleaf, herbicidal effect grade (velvetleaf [9]; 320 g/ha): 4 (Herbicidal rate of 70% or more and less than 90%); N: redroot pigweed, herbicidal effect grade (redroot pigweed [10]): 5 (Herbicidal rate of 90% or more (almost completely withered)); P: chickweed, herbicidal effect grade (chickweed): 5 (Herbicidal rate of 90% or more (almost completely withered)); Q: false cleavers, herbicidal effect grade (false cleavers; 320 g/ha): 5 (Herbicidal rate of 90% or more (almost completely withered))
CCOc1ccc2c(-c3c(O)c(C)nn(C)c3=O)c(-c3ccccc3OC)sc2c1Cl [7-003]	3 (Herbicidal rate of 40% or more and less than 70%)	0 (Herbicidal rate of 5% or less (almost no effect))	0 (Herbicidal rate of 5% or less (almost no effect))	0 (Herbicidal rate of 5% or less (almost no effect))	0 (Herbicidal rate of 5% or less (almost no effect))	0 (Herbicidal rate of 5% or less (almost no effect))	3 (Herbicidal rate of 40% or more and less than 70%)	5 (Herbicidal rate of 90% or more (almost completely withered))	4 (Herbicidal rate of 70% or more and less than 90%)	3 (Herbicidal rate of 40% or more and less than 70%)	2 (Herbicidal rate of 20% or more and less than 40%)	0 (Herbicidal rate of 5% or less (almost no effect))	4 (Herbicidal rate of 70% or more and less than 90%)	5 (Herbicidal rate of 90% or more (almost completely withered))	5 (Herbicidal rate of 90% or more (almost completely withered))	
CCCC(=O)Oc1c(C)nn(C)c(=O)c1-c1c(-c2ccc(F)cc2)oc2ccc(C)cc12 [9-005]																Herbicidal effect, B: Japanese bulrush (Japanese bulrush; [12]): 4 (Herbicidal rate of 70% or more and less than 90%); Herbicidal effect, C: oval-leafed pondweed (oval-leafed pondweed; [12]): 3 (Herbicidal rate of 40% or more and less than 70%); Herbicidal effect on D (Chinese sprangletop), foliage application (Chinese sprangletop; [12]): 0 (Herbicidal rate of 5% or less (almost no effect)); F: southern crabgrass, herbicidal effect grade (southern crabgrass; [12]): 0 (Herbicidal rate of 5% or less (almost no effect)); H: barnyard grass, herbicidal effect grade (barnyard grass [1]; [12]): 0 (Herbicidal rate of 5% or less (almost no effect)); I: wild oat, herbicidal effect grade (wild oat [2]; [12]): 0 (Herbicidal rate of 5% or less (almost no effect)); J: blackgrass, herbicidal effect grade (blackgrass [3]; [12]): 0 (Herbicidal rate of 5% or less (almost no effect)); M: velvetleaf, herbicidal effect grade (velvetleaf [4]; [12]): 0 (Herbicidal rate of 5% or less (almost no effect)); N: redroot pigweed, herbicidal effect grade (redroot pigweed [5]; [12]): 3 (Herbicidal rate of 40% or more and less than 70%); O: lambsquarters, herbicidal effect grade (lambsquarters; [12]): 3 (Herbicidal rate of 40% or more and less than 70%); herbicidal effect on barnyard grass (H) (barnyard grass [6]; 390 g/ha): 0 (Herbicidal rate of 5% or less (almost no effect)); herbicidal effect on wild oat (I) (wild oat [7]; 390 g/ha): 0 (Herbicidal rate of 5% or less (almost no effect)); herbicidal effect on blackgrass (J) (blackgrass [8]; 390 g/ha): 0 (Herbicidal rate of 5% or less (almost no effect)); herbicidal effect on velvetleaf (M) (velvetleaf [9]; 390 g/ha): 5 (Herbicidal rate of 90% or more (almost completely withered)); herbicidal effect on false cleavers (Q) (false cleavers; 390 g/ha): 4 (Herbicidal rate of 70% or more and less than 90%)
COc1ccc(-c2oc3ccc(C)cc3c2-c2c(O)c(C)nn(C)c2=O)cc1 [9-007]	5 (Herbicidal rate of 90% or more (almost completely withered))	5 (Herbicidal rate of 90% or more (almost completely withered))	5 (Herbicidal rate of 90% or more (almost completely withered))	3 (Herbicidal rate of 40% or more and less than 70%)	1 (Herbicidal rate of 5% or more and less than 20%)	4 (Herbicidal rate of 70% or more and less than 90%)	3 (Herbicidal rate of 40% or more and less than 70%)	5 (Herbicidal rate of 90% or more (almost completely withered))	4 (Herbicidal rate of 70% or more and less than 90%)	1 (Herbicidal rate of 5% or more and less than 20%)	4 (Herbicidal rate of 70% or more and less than 90%)	4 (Herbicidal rate of 70% or more and less than 90%)	4 (Herbicidal rate of 70% or more and less than 90%)	5 (Herbicidal rate of 90% or more (almost completely withered))	1 (Herbicidal rate of 5% or more and less than 20%)	
CCCC(=O)Oc1c(C)nn(C)c(=O)c1-c1c(-c2ccc(OC)cc2)oc2ccc(C)cc12 [9-008]	5 (Herbicidal rate of 90% or more (almost completely withered))	5 (Herbicidal rate of 90% or more (almost completely withered))	3 (Herbicidal rate of 40% or more and less than 70%)	3 (Herbicidal rate of 40% or more and less than 70%)	0 (Herbicidal rate of 5% or less (almost no effect))	0 (Herbicidal rate of 5% or less (almost no effect))	0 (Herbicidal rate of 5% or less (almost no effect))	5 (Herbicidal rate of 90% or more (almost completely withered))	4 (Herbicidal rate of 70% or more and less than 90%)	3 (Herbicidal rate of 40% or more and less than 70%)	3 (Herbicidal rate of 40% or more and less than 70%)	3 (Herbicidal rate of 40% or more and less than 70%)	1 (Herbicidal rate of 5% or more and less than 20%)	5 (Herbicidal rate of 90% or more (almost completely withered))	0 (Herbicidal rate of 5% or less (almost no effect))	
